In paper PMC12406203 (Journal of Medicinal Chemistry, 2025):
“And” between values parts separate entries of the source, which are not always exact repeats. Identical values can stand only once.

Experiments:
human p38α MAPK = human p38α MAPK (Homo sapiens, UniProt Q16539); details: for p38α MAPK RA at 100 μM: residual activity at 100 μM, mean ± SD, one experiment in triplicate
Protocol: The inhibitory activities against human p38α MAPK were evaluated using the commercially available ADP-Glo Kinase Assay (Promega, Inc., USA).
For the reference sample, 1% [v/v] DMSO replaced the inhibitor solution. […] The enzyme reaction was started with the addition of the enzyme solution. The DMSO concentration in the test solution was maintained at 1% [v/v]. The plate was incubated for 60 min. Then 5 μL of ADP-Glo reagent was added, followed by a 40 min incubation at room temperature. […] All incubations were performed at room temperature. The RA and IC50 values were calculated as described above (ChEs inhibitory potency).

hAChE [1] = molecular target: hAChE (Homo sapiens, UniProt P22303); details: residual activity at 100 μM; mean ± SD, one experiment in triplicate
Protocol: The inhibitory potencies of the compounds against the ChEs were determined using the method of Ellman. […] The final content of DMSO was always 1% [v/v]. […] The initial velocities in the presence (v i ) and absence (v 0) of the test compounds were calculated. The inhibitory potencies were expressed as the residual activities, according to RA = (v i – b)/(v 0 – b), where b is the blank value using phosphate buffer without ChEs. For IC50 determinations, at least seven different concentrations for each compound were used. The IC50 values were obtained by plotting the residual ChE activities against the applied inhibitor concentrations, with the experimental data fitted to a four-parameter logistic function (GraphPad Prism 10.0).

hBChE [2] = molecular target: hBChE (Homo sapiens, UniProt P06276); details: residual activity at 100 μM; mean ± SD, one experiment in triplicate
hAChE [3] = system: hAChE
hBChE [4] = system: hBChE
PBMCs = test: Cytokine release from PHA-stimulated PBMCs; format: cell-based, human; details: 1, 2.5, and 5 μM, 18 h
Protocol: Human PBMCs from healthy donors were isolated from heparinized blood by density gradient centrifugation with Ficoll-Paque. The isolated cells were washed twice with PBS, resuspended in RPMI 1640 medium (Sigma-Aldrich, St. Louis, MO, USA) supplemented with 10% heat-inactivated fetal bovine serum (Gibco), 2 mM L-glutamine (Sigma-Aldrich), 100 U/mL penicillin (Sigma-Aldrich), and 100 μg/mL streptomycin (Sigma-Aldrich), and used in the assays.
Peripheral blood mononuclear cells were seeded (500,000 cells/well) in 24-well plates in 500 μL of growth medium and treated with compounds 94, 95, and neflamapimod (1, 2.5, and 5 μM) in the presence or absence of PHA (1 μg/mL) or the corresponding vehicle (0.1% DMSO). Cell-free supernatants were collected after 18 h of incubation (37 °C, 5% CO2) and stored at −80 °C until tested. Cytokine production was determined with BD Cytometric Bead Array human inflammatory cytokines kit (BD Bioscience) on an Attune NxT flow cytometer (Thermo Fisher Scientific, Waltham, MA, USA). Standard curves were generated using recombinant cytokines contained in the kit. The data were analyzed using the FlowJo (Tree Star, Inc., Ashland, OR, USA) and Prism (GraphPad Prism 6.0, GraphPad Software) software.

[5] = system: mice (locomotor activity); test: Locomotor activity test; details: 30 mg/kg, i.p., mean ± SEM
Text: The mice had unlimited access to food and water prior to the experiment. Specified conditions for the maintenance of mice were ensured throughout the experiment, including tree bedding (Transwior, Poland) and cage enrichment (tunnels, nesting material, wooden igloos, etc.). For behavioral tests, the mice were selected randomly; each group consisted of 7–10 mice. […] After in vivo tests, the animals were immediately euthanized, and their tissues were collected and stored for further ex vivo testing.
They were administered intraperitoneally (i.p.) 60 min before the acquisition trial of the PA, NOR, and MWM tasks.
The locomotor activity test was performed using activity cages (40 cm × 40 cm × 30 cm, supplied with IR beam emitters) (Activity Cage 7441, Ugo Basile, Italy) connected to a counter for the recording of light-beam interrupts. […] The animals’ movements (i.e., the number of light-beam crossings) were counted during the next 60 min of the test. Before the experiment, the mice were habituated to activity cages for 15 min.

[6] = system: scopolamine-induced cognitive deficits in mice; test: Passive avoidance task, scopolamine-induced amnesia; format: in vivo; details: 1–30 mg/kg i.p.
Text: (§1) In the scopolamine model, the PA and NOR tasks were used for dose selection for further testing.
The mice had unlimited access to food and water prior to the experiment. Specified conditions for the maintenance of mice were ensured throughout the experiment, including tree bedding (Transwior, Poland) and cage enrichment (tunnels, nesting material, wooden igloos, etc.). For behavioral tests, the mice were selected randomly; each group consisted of 7–10 mice.
(§2) Scopolamine hydrobromide (Sigma-Aldrich, Poland) at the dose of 1 mg/kg was used to induce learning and memory deficits. For the in vivo tests, scopolamine was prepared in distilled water (Polfa Kutno, Poland) and was administered subcutaneously (s.c.) 30 min before behavioral tests during the acquisition (training) trial of PA and NOR tasks. […] They were administered intraperitoneally (i.p.) 60 min before the acquisition trial of the PA, NOR, and MWM tasks.
The PA apparatus (Panlab Harvard Apparatus, Spain) consists of a large white-colored illuminated compartment (26 cm × 26 cm × 34 cm) and a small black-colored compartment (13 cm × 7.5 cm × 7.5 cm), which are separated from each other by a guillotine gate (5 cm × 5 cm). The PA task is divided into two trials (i.e., the acquisition trial and the retention trial), each conducted 24 h apart. On the first day, during the acquisition trial (a conditioning phase), the test compounds (94 and 95, neflamapimod and vehicle) were injected. Also, before the acquisition trial, scopolamine or LPS was administered at selected time points. Then, each mouse was placed into the white compartment, and a 30 s habituation period began (guillotine gate is closed). After that, the guillotine gate was opened, and the mice were tested during the 180 s testing period. As soon as the mouse entered the black compartment of the PA device, the guillotine gate was closed and an electrical shock (intensity: 0.2 mA, duration: 2 s) was automatically applied through the grid floor. For each mouse, the latency between the opening of the guillotine gate and the mouse’s entering the black compartment was measured. On the next day, during the retention (drug-off) trial, the mice were placed again into the white compartment for a 30 s habituation period, and the latency to enter the black compartment was measured for each mouse.

[7] = Pharmacokinetic study in mice; details: for Kp: brain/serum; for half-life: serum and brain
Protocol: In this study, male CD-1 mice weighing 27–34 g housed in conditions of constant temperature with a 12:12 h light-dark cycle with free access to food and water were used. Both tested and reference compounds were suspended in 1% Tween in water for injection (Polpharma, Poland) and administered intraperitoneally (i.p.). The mice were sacrificed by decapitation under isoflurane anesthesia at different time points following compound administration. Brains were harvested at the same time points. Blood was allowed to clot at room temperature for 20 min, and serum was separated by centrifugation at 8 000g (Eppendorf MiniSpin centrifuge, Germany) for 10 min. All samples were stored at −80 °C until analysis.
The analytical workflow employed a Sciex QTRAP 4500 triple quadrupole mass spectrometer interfaced with an Exion LC AC HPLC system (Danaher Corporation, USA). Chromatographic separation was achieved on an XBridge C18 column (3 × 50 mm, 5 μm; Waters, USA), utilizing a mobile phase composed of acetonitrile and water both containing 0.1% formic acid. The column temperature was maintained at 40 °C, and a gradient elution protocol (Table S10) was implemented to ensure optimal analyte resolution and retention times. Mass spectrometric detection was conducted in unit resolution mode, with ion transitions specified in Table S11. […] Valsartan served as the internal standard and was monitored at m/z 436 → 207 (collision energy = 42 eV). Positive electrospray ionization (ESI+) was employed to enhance detection sensitivity. Ion path parameters (Table S11) were optimized via direct infusion of analyte solutions (7 μL/min) using a syringe pump. The optimized source conditions included an ion spray voltage of 5500 V, a source temperature of 450 °C, curtain gas pressure at 20 psi, and medium collision gas pressure. […] No significant matrix effects or stability concerns were observed during routine sample analysis. Data acquisition and processing were carried out using Analyst software version 1.7.
Serial dilutions were performed to generate working solutions ranging from 0.01 to 20 μg/mL, corresponding to final calibration concentrations of 0.001–2 μg/mL. For calibration curve construction, 5 μL of each working solution was spiked into 45 μL of the relevant biological matrix (serum or brain homogenate) and vortexed for 10 s. Sample preparation involved protein precipitation, in a 1:3 (v/v) ratio, using acetonitrile containing 0.1% formic acid and the internal standard. The mixtures were agitated for 10 min using an IKA Vibrax VXR shaker (Germany), followed by centrifugation at 8000 × g for 5 min (Eppendorf miniSpin, Germany). The resulting supernatants were transferred to chromatographic vials for analysis.
Brain tissues were homogenized in distilled water at a 1:4 (w/v) ratio using an ULTRA-TURRAX T10 basic homogenizer (IKA, Germany). Aliquots of brain homogenate or serum (50 μL) were subjected to protein precipitation in a 1:3 (v/v) ratio with acetonitrile containing 0.1% formic acid and the internal standard. The mixtures were agitated for 10 min using an IKA Vibrax VXR shaker (Germany), followed by centrifugation at 8000 × g for 5 min (Eppendorf miniSpin, Germany). The resulting supernatants were directly transferred to chromatographic vials for analysis. In cases where analyte concentrations in serum exceeded 20 μg/mL, samples were diluted with blank matrix prior to the deproteinization step. The autosampler was maintained at 15 °C, and a 1 μL aliquot was injected onto the analytical column.
Pharmacokinetic parameters were estimated using the noncompartmental analysis (NCA). The maximum concentration (C max) and the time to reach maximum concentration (t max) in serum and brain were obtained directly from the concentration versus time data.

LPS-treated mice = test: Morris water maze task, LPS model of neuroinflammation; format: in vivo
Protocol: The compounds were administered for 10 consecutive days, and on the last 6 days of their administration, LPS was also administered intraperitoneally 5 h before the test compounds. On these 6 days, the acquisition phase of the MWM task was performed. One day later, the retention, drug-off trial of the MWM task was carried out.
In the LPS model adult male C57BL/6J mice (Animal Breeding Farm of the Faculty of Pharmacy, Jagiellonian University Medical College) of similar weight and age were used. […] The mice had unlimited access to food and water prior to the experiment. Specified conditions for the maintenance of mice were ensured throughout the experiment, including tree bedding (Transwior, Poland) and cage enrichment (tunnels, nesting material, wooden igloos, etc.). For behavioral tests, the mice were selected randomly; each group consisted of 7–10 mice. […] After in vivo tests, the animals were immediately euthanized, and their tissues were collected and stored for further ex vivo testing.
LPS (Lipopolysaccharide from Escherichia coli O111:B4, Sigma-Aldrich, Poland) was used to induce neuroinflammation in mice. […] They were administered intraperitoneally (i.p.) 60 min before the acquisition trial of the PA, NOR, and MWM tasks. […] In the rotarod, locomotor activity, and MWM tests, only one dose effective in the scopolamine model of amnesia was evaluated.
The Morris water maze is a circular, plastic, and gray-painted pool (120 cm in diameter and 60 cm in height), filled with water (up to about 48 cm below the edge to prevent an animal from jumping out), maintained at 23 ± 1 °C. The pool was divided into four equal quadrants (compass locations: NE, NW, SE, SW) by a computerized video tracking system (SMART, ver. 3.0; Panlab, Spain). An escape platform (11 cm in diameter and 47 cm in height) at a fixed location (the center of the NW quadrant, i.e., the target quadrant) was made of transparent Plexiglas, being invisible to the swimming animal, and was immersed 1 cm under the surface of water. The maze was lighted with an intensity of 45 lx. […] The time taken to reach the hidden platform (escape latency) on days 1–6 was recorded for each mouse and analyzed. Each animal was released from a different starting point and was allowed to swim for 60 s. […] On the seventh day (a drug-off trial conducted 24 h after the last training trial), the platform was removed from the pool, and a probe trial was performed (without drug treatmentassessment of memory retention).

[8] = system: mice (motor coordination); test: Rotarod test; details: 6, 18, and 24 rpm; all mice of the group
Protocol: For behavioral tests, the mice were selected randomly; each group consisted of 7–10 mice.
In the rotarod, locomotor activity, and MWM tests, only one dose effective in the scopolamine model of amnesia was evaluated.
Three days before the rotarod test, the mice were trained on the rotarod apparatus (Rotarod apparatus, May Commat RR0711, Turkey; rod diameter: 2 cm) that was rotated at a fixed speed of 18 rpm. In each training session, the mice were placed on the rotating rod for 3 min with an unlimited number of trials. The proper experiment was performed 24 h after the last training trial. […] Motor impairments in mice were defined as the inability to remain on the rotarod apparatus for 1 min. The results are expressed as the mean time spent on the rotarod.

[9] = system: scopolamine-induced cognitive deficits in mice; test: Novel object recognition task, scopolamine-induced amnesia; format: in vivo; details: 1, 10, and 30 mg/kg i.p.; scopolamine model
Text: as §1
The mice had unlimited access to food and water prior to the experiment. Specified conditions for the maintenance of mice were ensured throughout the experiment, including tree bedding (Transwior, Poland) and cage enrichment (tunnels, nesting material, wooden igloos, etc.). For behavioral tests, the mice were selected randomly; each group consisted of 7–10 mice. […] The procedures for maintenance and treatment of laboratory animals were approved by the first Local Ethics Committee in Krakow (Approval No. 645/2022, 760/2023, and 829/2024 and the treatment of animals was in full accordance with ethical standards laid down in respective Polish and EU regulations (Directive 2010/63/EU).
as §2
The experiment was conducted in opaque black boxes with dimensions of 50 × 50 × 50 cm. The 3 day procedure consists of habituation to the test arena (without any objects) for 10 min on the first day (T0), a training trial (T1), and a testing trial (T2) separated by a 24 h intertrial interval. During T1 (familiarization trial), two identical objects (A and B) were presented in the opposite corners of the arena, approximately 5 cm from its walls. During T2 (recognition trial), one of the objects (B) was replaced by a novel object (C), so that the animals were presented with A (familiar) and C (novel) objects. Both T1 and T2 trials lasted for 10 min, and after each trial, the animals returned to their home cages. White plastic round containers (height 5 cm, diameter 5 cm) attached to the ground with double-sided tape were used as the A, B objects, and green cuboids of similar height were used as object C. The objects were stable enough so that the animals could not displace them. The sequence of presentations and the location of the objects were randomly assigned to each mouse. The animals explored the objects by looking, licking, sniffing, or touching them while sniffing, but not when leaning against, standing, or sitting on the objects. Any mouse exploring the two objects for less than 5 s within the 10 min duration of T1 or T2 was eliminated from the study. An experimenter, blind to the drug treatment, measured the exploration time of the objects.

[10] = system: scopolamine-induced cognitive deficits in mice; details: 1 and 2.5 mg/kg doses; as shown previously; cited from earlier work
[11] = PAMPA
[12] = system: TLR4, COX-2, NLRP3, cPLA2 levels in brains of LPS-treated mice; test: Western blot of brains of LPS-treated mice (ex vivo); format: in vivo; details: 94, 95: 10 mg/kg i.p.; rivastigmine 1 mg/kg i.p.; vs LPS-treated control
Protocol: After the completion of cognitive assays carried out in the LPS model, the mice were sacrificed, and their brains were collected and stored for further analysis. In the ex vivo part of the study, murine brains were homogenized using T-PER mammalian protein extraction reagent (Thermo Fisher Scientific, Waltham, MA, USA) with protease (Merck Millipore, Burlington, MA, USA) and phosphatase inhibitors (Cayman Chemical, Ann Arbor, MI, USA). The total protein concentrations were determined using the Bradford reaction. Forty μg of the total proteins were solubilized in Laemmli buffer with 2% 2-mercaptoethanol and were subject to 10% SDS-polyacrylamide gel electrophoresis. The anticyclooxygenase 2 (COX-2, diluted 1:1000), antitoll-like receptor 4 (TLR4, diluted 1:1000), anticytosolic phospholipase A2 (cPLA2, 1:1000), and anti-inflammasome (NLPR3, diluted 1:500) were used (Thermo Fisher Scientific, Waltham, MA, USA). The endogenous control was β-actin (1:1000) (Thermo Fisher Scientific, Waltham, MA, USA). The secondary antibody was antirabbit IgG (HRP) diluted 1:2000 (Thermo Fisher Scientific, Waltham, MA, USA). Proteins were detected using the Clarity Western ECL Luminol Substrate (Bio-Rad, Hercules, CA, USA). Chemi Doc Camera with Image Lab 6.1 software (Bio-Rad) was used to quantify the integrated optical density of the bands. The results were normalized to the data obtained for β-actin after stripping the PVDF membrane using Restore Western Blot Stripping Buffer (Thermo Fisher Scientific, Waltham, MA, USA) and expressed as relative to the control. This thorough process ensures the validity and reliability of the results.

[13] = system: scopolamine-induced cognitive deficits in mice; details: scopolamine-induced memory-impaired mice; doses of 1 and 2.5 mg/kg; reported previously; cited from earlier work
[14] = system: mice (motor coordination); details: already at the dose of 1 mg/kg, as shown previously; cited from earlier work
[15] = brain, neflamapimod 30 mg/kg i.p., mice
[16] = male, CD-1, mouse, brain, ip, 30 mg/kg
[17] = male, CD-1, mouse, ip, 30 mg/kg
[18] = male, CD-1, mouse, serum, ip, 30 mg/kg
[19] = 10 mg/kg i.p., p < 0.05 vs LPS-treated control
[20] = brain, rivastigmine 2.5 mg/kg i.p., mice
[21] = male, CD-1, mouse, brain, ip, 2.5 mg/kg
[22] = male, CD-1, mouse, ip, 2.5 mg/kg
[23] = male, CD-1, mouse, serum, ip, 2.5 mg/kg

Chain of hBChE (Homo sapiens, UniProt P06276) (P06276 29-602): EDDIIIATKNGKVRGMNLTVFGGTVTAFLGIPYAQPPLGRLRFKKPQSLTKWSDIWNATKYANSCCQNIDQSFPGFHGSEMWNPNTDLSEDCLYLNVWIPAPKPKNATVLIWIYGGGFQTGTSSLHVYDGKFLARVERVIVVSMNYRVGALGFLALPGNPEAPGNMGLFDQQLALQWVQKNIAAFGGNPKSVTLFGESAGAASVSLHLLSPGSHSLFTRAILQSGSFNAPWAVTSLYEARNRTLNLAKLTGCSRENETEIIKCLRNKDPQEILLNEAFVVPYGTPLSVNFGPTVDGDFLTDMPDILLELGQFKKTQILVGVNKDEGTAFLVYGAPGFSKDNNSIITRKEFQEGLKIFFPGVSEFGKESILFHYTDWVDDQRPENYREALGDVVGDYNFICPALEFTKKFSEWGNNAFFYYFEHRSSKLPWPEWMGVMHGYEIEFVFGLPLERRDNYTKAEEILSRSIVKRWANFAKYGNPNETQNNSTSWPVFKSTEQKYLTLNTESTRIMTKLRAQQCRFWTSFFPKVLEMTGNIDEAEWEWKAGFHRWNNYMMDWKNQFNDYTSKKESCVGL
Chain of hAChE (Homo sapiens, UniProt P22303) (P22303 32-614): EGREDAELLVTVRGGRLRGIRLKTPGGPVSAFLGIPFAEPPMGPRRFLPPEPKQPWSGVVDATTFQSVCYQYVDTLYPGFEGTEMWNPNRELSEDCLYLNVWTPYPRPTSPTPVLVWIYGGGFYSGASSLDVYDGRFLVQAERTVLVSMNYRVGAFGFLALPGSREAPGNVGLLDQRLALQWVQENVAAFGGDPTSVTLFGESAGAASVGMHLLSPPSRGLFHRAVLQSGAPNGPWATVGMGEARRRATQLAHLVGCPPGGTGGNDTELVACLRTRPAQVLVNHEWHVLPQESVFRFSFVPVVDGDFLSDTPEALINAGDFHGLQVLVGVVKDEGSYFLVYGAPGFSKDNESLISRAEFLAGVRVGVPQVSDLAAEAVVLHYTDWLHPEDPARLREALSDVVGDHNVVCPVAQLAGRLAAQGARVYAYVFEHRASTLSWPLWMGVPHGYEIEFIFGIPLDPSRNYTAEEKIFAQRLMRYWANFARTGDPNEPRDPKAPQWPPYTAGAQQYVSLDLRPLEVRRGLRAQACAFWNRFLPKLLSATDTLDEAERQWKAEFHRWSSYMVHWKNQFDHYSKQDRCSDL
Chain of human p38α MAPK (Q16539 whole entry): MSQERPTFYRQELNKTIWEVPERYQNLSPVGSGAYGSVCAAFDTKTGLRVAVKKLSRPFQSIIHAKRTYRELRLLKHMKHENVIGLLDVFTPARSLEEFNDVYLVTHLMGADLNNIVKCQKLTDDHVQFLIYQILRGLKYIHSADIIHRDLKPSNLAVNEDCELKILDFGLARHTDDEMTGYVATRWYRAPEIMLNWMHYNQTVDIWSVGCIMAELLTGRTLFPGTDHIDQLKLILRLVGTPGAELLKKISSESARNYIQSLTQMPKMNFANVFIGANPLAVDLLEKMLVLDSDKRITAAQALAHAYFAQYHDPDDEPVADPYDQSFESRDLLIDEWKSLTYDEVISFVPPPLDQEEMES

In the case of `COc1ccc(Oc2cc3cnn(CC(C)C)c3cc2C(=O)NCCN(C)C)cc1` [Compound 91, N-(2-(Dimethylamino)ethyl)-1-isobutyl-5-(4-methoxyphenoxy)-1H-indazole-6-carboxamide], the “p38α MAPK RA at 100 μM” value (human p38α MAPK) is reported as 0.9 ± 0.3%, the “hAChE RA at 100 μM” value (hAChE [1]) is reported as 75.2% and 75.2 ± 3.8% and the “hBChE RA at 100 μM” value (hBChE [2]) is reported as 54.1% and 54.1 ± 1.3%. For the same molecule, the “RA at 100 µM” value (hAChE [3]) was 75.2 ± 3.8%, the “RA at 100 µM” value (hBChE [4]) was 54.1 ± 1.3% and the “RA at 100 µM” value (p38α MAPK) was 0.9 ± 0.3%.

With `O=c1ncn2nc(Sc3ccc(F)cc3F)ccc2c1-c1c(Cl)cccc1Cl` [neflamapimod, reference compound] the “production of pro-inflammatory cytokines IL-8, IL-1β, IL-6, IL-10, and TNF-α” value (PBMCs) was “significantly inhibited”, the “number of light-beam crossings” value [5] was 2481 ± 195 and the “effect on scopolamine-induced memory decline in PA task” value [6] was “did not confirm memory-improving properties”. The “AUC0-∞” value [7, 15] was 755355.60 ng·min/mL(g), the AUC(0-t) [7, 15] was 566796.70 ng·min/mL(g) and the t0.5λz [7, 15] was 1049.79 min. For the same molecule, the Cmax [7, 16] was 2290 ng/g, the MRT [7, 16] was 999 min and the Tmax [7, 16] was 15 min. It also gave a k el [7, 16] of 1.1e-05 s⁻¹, a Kp [7, 17] of 0.68 and a half-life [7, 17] of roughly 1000 min. It also gave an AUC(0-inf) [7, 18] of 18700 ng·h/mL, an AUC(0-t) [7, 18] of 14400 ng·h/mL and a CL/F [7, 18] of 27 mL/min/kg. For the same molecule, the Cmax [7, 18] was 4090 ng/mL, the MRT [7, 18] was 903 min and the Tmax [7, 18] was 15 min. It also gave a Vd/F [7, 18] of 37.8 L/kg, a k el [7, 18] of 1.18e-05 s⁻¹ and a t0.5λz ([7]; serum, neflamapimod 30 mg/kg i.p., mice) of 978.45 min. The “time spent at the target zone (MWM day 7)” value (LPS-treated mice; [19]) was “increased”, the “time spent in the NW zone (MWM day 7)” value (LPS-treated mice; [19]) was “increased” and the “spatial learning, acquisition phase of MWM” value (LPS-treated mice; 10 and 30 mg/kg i.p., LPS-treated mice) was “effective in improving spatial learning only on day 3”. The “time spent on the rotarod” value [8] was 60 s and the “effect in NOR task” value [9] was “did not reveal its memory-improving properties”.

In the case of “N-(2-(1H-Pyrrol-1-yl)ethyl)-1-(cyclohexylmethyl)-5-(2,4-difluorophenoxy)-2H-indazole-6-carboxamide [Compound 104]”, the “p38α MAPK RA at 100 μM” value (human p38α MAPK) is reported as 81.2% and 81.2 ± 6.6%, the “hAChE RA at 100 μM” value (hAChE [1]) is reported as 67.6 ± 2.3% and the “hBChE RA at 100 μM” value (hBChE [2]) is reported as 34.4±1.5%.

With “Methyl-1-(cyclopropylmethyl)-5-(2,4-difluorophenoxy)-1H-indazole-6-carboxylate [Compound 27]” the IC50 (human p38α MAPK; read-out: p38α MAPK IC50 ± SEM, two independent experiments, each in triplicate) was 330 ± 158 nM, the “hAChE RA at 100 μM” value (hAChE [1]) was 81.1% and 81.1 ± 2.3% and the “hBChE RA at 100 μM” value (hBChE [2]) was 76.6% and 76.6 ± 11.7%.

In the case of `CCN(C)C(=O)Oc1cccc([C@H](C)N(C)C)c1` [rivastigmine, reference compound], the “efficacy in PA and NOR tasks” value [10] is listed as “effective”, the “CNS (+/–)” value [11] is listed as “CNS+ (key: CNS+ indicates high predicted BBB permeation [Pe (×10–6 cm/s) > 4.0]; CNS– indicates low predicted BBB permeation [Pe (×10–6 cm/s) < 2.0])” and the “AUC0-∞” value [7, 20] is listed as 12082.71 ng·min/mL(g). For the same molecule, the AUC(0-t) [7, 20] was 11678.40 ng·min/mL(g), the t0.5λz [7, 20] was 32.64 min and the Cmax [7, 21] was 609 ng/g. For the same molecule, the MRT [7, 21] was 26.6 min, the Tmax [7, 21] was 5 min and the k el [7, 21] was 0.00035 s⁻¹. The Kp [7, 22] was 4.16, the half-life [7, 22] was roughly 30 min and the AUC(0-inf) [7, 23] was 48.4 ng·h/mL. It also gave an AUC(0-t) [7, 23] of 46.8 ng·h/mL, a CL/F [7, 23] of 860 mL/min/kg and a Cmax [7, 23] of 142 ng/mL. The MRT [7, 23] was 27.8 min, the Tmax [7, 23] was 5 min and the Vd/F [7, 23] was 37.2 L/kg. For the same molecule, the k el [7, 23] was 0.000383 s⁻¹, the t0.5λz ([7]; serum, rivastigmine 2.5 mg/kg i.p., mice) was 29.99 min and the “brain cPLA2 expression” value [12] was “no difference”. For the same molecule, the “brain levels of TLR4, COX-2, and NLRP3” value [12] was “significantly lower levels”, the “procognitive efficacy in PA task” value [13] was “procognitive activity” and the “efficacy in the LPS model of neuroinflammation accompanied by memory decline” value (LPS-treated mice; 1 mg/kg i.p.) was “not effective”. For the same molecule, the “escape latency, acquisition phase of MWM” value (LPS-treated mice; 1 mg/kg i.p., vs LPS-treated control, transient, not on days 4–6) was “statistically significantly lower escape latencies were observed on day 3” and the “motor side effects shortly after administration” value [14] was “caused muscle tremor and transient motor coordination deficits”.

In the case of `CC(C)Cn1ncc2cc(S(=O)(=O)c3ccc(F)cc3F)c(C(=O)NCCN(C)C)cc21` [Compound 93, 5-((2,4-Difluorophenyl)sulfonyl)-N-(2-(dimethylamino)ethyl)-1-isobutyl-1H-indazole-6-carboxamide], the “p38α MAPK RA at 100 μM” value (human p38α MAPK) is reported as 5.9 ± 0.2%, the “hAChE RA at 100 μM” value (hAChE [1]) is reported as 98.0% and 98.0 ± 2.7% and the “hBChE RA at 100 μM” value (hBChE [2]) is reported as 77.6% and 77.6 ± 3.1%. For the same molecule, the “RA at 100 µM” value (hAChE [3]) was 98.0 ± 2.7%, the “RA at 100 µM” value (hBChE [4]) was 77.6 ± 3.1% and the “RA at 100 µM” value (p38α MAPK) was 5.9 ± 0.2%.
